# According to patent US20260325487A1 (BS BIOTECHNA SPOLKA AKCYJNA, priority 2023, published 2026):
# Read-outs that look alike come from different tables or passages of the source.
# Tests used:
# Type in all cases: cell-based
# NCI-H226 = test: SRB anti-proliferative assay, NCI-H226, molecular combination and nanoparticles, with combination index (Example III); details: Homo sapiens
# Experimental: (§1) Cells were thawed from ampoules stored in liquid nitrogen and cultured in petri dishes in the appropriate culture medium according to Table 16, in a humidified 5% CO2 atmosphere at 37° C. Cells were passaged twice weekly using EDTA-Trypsin solution, pH 8, as a separating agent. Counted cells with a viability of at least 90% as assessed with Trypan-Blue solution were used for anti-proliferation assays.
# (§2) Twenty-four hours before the addition of the test compounds/combinations, cells were seeded into 384-well plates at 50 μL/well and a density of 10^3 cells/well, in the appropriate culture medium. […] Solutions of the compounds were diluted in the test medium—RPMI-1640 and Opti-MEM in a 1:1 ratio, and the medium was supplemented with 2 mM glutamine and 5% fetal bovine serum FBS.
# (§3) After 72 h, colourimetric assessment of cell growth was performed by SRB. […] Unbound dye was removed by washing the plates (4×) in 1% (v/v) acetic acid, and protein-bound dye was extracted with 10 mM unbuffered Tris base and the optical density (A=540 nm) was determined in a BioTek Synergy H4 Hybrid computer microplate reader (BioTek Instruments USA). The entire washing/staining procedure was performed using a BioTek EL406 washing station (BioTek Instruments USA). The raw absorbance results were analysed in Microsoft Excel software using the formula:
# (§4) [formula] • Where: • % Zahlnh-inhibition of proliferation • Am—absorbance of wells without cells (medium) • Ak—absorbance of control wells (cells treated with pure culture medium) • Ap—absorbance of wells treated with compounds
# (§5) Each compound at the indicated concentrations was tested in triplicate in one experiment. Each experiment was repeated three times. Data analysis was supplemented with synergy assessment using CalcuSyn software. […] A CI value below 0.8 indicates synergism, 0.8-1.2 an additive effect, above 1.2 an antagonism.
# LN229 = test: SRB anti-proliferative assay, LN229, with CalcuSyn combination index (Example 1); details: Homo sapiens, LN-229, 72 h, read-out: Zah. (inhibition of proliferation)
# Experimental: (§6) Cells were thawed from ampoules stored in liquid nitrogen and cultured in petri dishes in appropriate culture medium according to Table 2, in a humidified 5% CO2 atmosphere at 37° C. Cells were passaged twice weekly using EDTA-Trypsin solution, pH 8. Counted cells with a viability of at least 90% as assessed with Trypan-Blue solution were used for anti-proliferative assays.
# (§7) Twenty-four hours before the addition of the test compounds/combinations, cells were seeded into 384-well plates at 50 μL/well and a density of 10^3 cells/well, in the appropriate culture medium.
# as §3, with “Solutions of the compounds were diluted in the test medium-RPMI-1640 and Opti-MEM in a 1:1 ratio, and the medium was supplemented with 2 mM glutamine and 5% fetal bovine serum FBS. After” for “After”
# as §4, §5
# SKMES-1 = test: SRB anti-proliferative assay, SKMES-1, molecular combination and nanoparticles, with combination index (Example III); details: Homo sapiens, SK-MES-1, read-out: Inhibition of cell proliferation (Zah.)
# Experimental: as §1, §2, §3, §4, §5
# LUDLU-1 = test: SRB anti-proliferative assay, LUDLU-1, with CalcuSyn combination index (Example 1); details: Homo sapiens, LUDLU-1, 72 h, read-out: Zah. (inhibition of proliferation)
# Experimental: as §6, §7
# as §3, with “Solutions of the compounds were diluted in the test medium-RPMI-1640 and Opti-MEM in a 1:1 ratio, and the medium was supplemented with 2 mM glutamine and 5% fetal bovine serum FBS. After” for “After”
# as §4, §5
compound,measurement,setting,value
"C=CCNC1=C2C[C@@H](C)C[C@H](OC)[C@H](O)[C@@H](C)/C=C(\C)[C@H](OC(N)=O)[C@@H](OC)/C=C\C=C(/C)C(=O)NC(=CC1=O)C2=O [17AAG, 17-AAG (tanespimycin)]",inhibition at 0.0032 µM,"NCI-H226; NCI-H226, read-out: Inhibition of cell proliferation (Zah.), single agent, 3.2 nM",10.4%
same,inhibition at 0.01 µM,"NCI-H226; NCI-H226, read-out: Inhibition of cell proliferation (Zah.), single agent, 10 nM",17.2%
same,inhibition at 0.0316 µM,"NCI-H226; NCI-H226, read-out: Inhibition of cell proliferation (Zah.), single agent, 31.6 nM",29.4%
same,inhibition at 0.1 µM,"NCI-H226; NCI-H226, read-out: Inhibition of cell proliferation (Zah.), single agent, 100 nM",51.4%
same,inhibition at 0.3163 µM,"NCI-H226; NCI-H226, read-out: Inhibition of cell proliferation (Zah.), single agent, 316.3 nM",59.1%
same,inhibition at 1 µM,"NCI-H226; NCI-H226, read-out: Inhibition of cell proliferation (Zah.), single agent, 1000 nM",65%
same,inhibition at 3.1625 µM,"NCI-H226; NCI-H226, read-out: Inhibition of cell proliferation (Zah.), single agent, 3162.5 nM",69.5%
same,inhibition at 10.0005 µM,"NCI-H226; NCI-H226, read-out: Inhibition of cell proliferation (Zah.), single agent, 10000.5 nM",68.4%
same,inhibition at 0.0032 µM,"NCI-H226; NCI-H226, read-out: Zah. (inhibition of cell proliferation), NCI-H226 (Table 35a), compound alone, 3.2 nM",10.4%
same,inhibition at 0.01 µM,"NCI-H226; NCI-H226, read-out: Zah. (inhibition of cell proliferation), NCI-H226 (Table 35a), compound alone, 10 nM",17.2%
same,inhibition at 0.0316 µM,"NCI-H226; NCI-H226, read-out: Zah. (inhibition of cell proliferation), NCI-H226 (Table 35a), compound alone, 31.6 nM",29.4%
same,inhibition at 0.1 µM,"NCI-H226; NCI-H226, read-out: Zah. (inhibition of cell proliferation), NCI-H226 (Table 35a), compound alone, 100 nM",51.4%
same,inhibition at 0.3163 µM,"NCI-H226; NCI-H226, read-out: Zah. (inhibition of cell proliferation), NCI-H226 (Table 35a), compound alone, 316.3 nM",59.1%
same,inhibition at 1 µM,"NCI-H226; NCI-H226, read-out: Zah. (inhibition of cell proliferation), NCI-H226 (Table 35a), compound alone, 1000 nM",65%
same,inhibition at 3.1625 µM,"NCI-H226; NCI-H226, read-out: Zah. (inhibition of cell proliferation), NCI-H226 (Table 35a), compound alone, 3162.5 nM",69.5%
same,inhibition at 10.0005 µM,"NCI-H226; NCI-H226, read-out: Zah. (inhibition of cell proliferation), NCI-H226 (Table 35a), compound alone, 10000.5 nM",68.4%
same,inhibition at 0.0032 µM,"NCI-H226; NCI-H226, read-out: Zah. (inhibition of cell proliferation), NCI-H226, compound alone, 3.2 nM",-6.6%
same,inhibition at 0.01 µM,"NCI-H226; NCI-H226, read-out: Zah. (inhibition of cell proliferation), NCI-H226, compound alone, 10 nM",-4.6%
same,inhibition at 0.0316 µM,"NCI-H226; NCI-H226, read-out: Zah. (inhibition of cell proliferation), NCI-H226, compound alone, 31.6 nM",30.6%
same,inhibition at 0.1 µM,"NCI-H226; NCI-H226, read-out: Zah. (inhibition of cell proliferation), NCI-H226, compound alone, 100 nM",44.7%
same,inhibition at 0.3163 µM,"NCI-H226; NCI-H226, read-out: Zah. (inhibition of cell proliferation), NCI-H226, compound alone, 316.3 nM",49.3%
same,inhibition at 1 µM,"NCI-H226; NCI-H226, read-out: Zah. (inhibition of cell proliferation), NCI-H226, compound alone, 1000 nM",59%
same,inhibition at 3.1625 µM,"NCI-H226; NCI-H226, read-out: Zah. (inhibition of cell proliferation), NCI-H226, compound alone, 3162.5 nM",63.5%
same,inhibition at 10.0005 µM,"NCI-H226; NCI-H226, read-out: Zah. (inhibition of cell proliferation), NCI-H226, compound alone, 10000.5 nM",61.4%
same,inhibition at 0.0032 µM,LN229,3.3%
same,inhibition at 0.01 µM,LN229,3.1%
same,inhibition at 0.0316 µM,LN229,18.4%
same,inhibition at 0.1 µM,LN229,28.9%
same,inhibition at 0.3163 µM,LN229,38.7%
same,inhibition at 1 µM,LN229,62.9%
same,inhibition at 3.1625 µM,LN229,71.6%
same,inhibition at 10.0005 µM,LN229,81.5%
same,inhibition at 0.0003163 µM,SKMES-1,2.2%
same,inhibition at 0.001 µM,SKMES-1,46.7%
same,inhibition at 0.0032 µM,SKMES-1,86.7%
same,inhibition at 0.01 µM,SKMES-1,90.6%
same,inhibition at 0.0316 µM,SKMES-1,85.1%
same,inhibition at 0.1 µM,SKMES-1,87.9%
same,inhibition at 0.3163 µM,SKMES-1,89.3%
same,inhibition at 1 µM,SKMES-1,89.1%
same,inhibition at 0.0031 µM,LUDLU-1,6.1%
same,inhibition at 0.01 µM,LUDLU-1,20.4%
same,inhibition at 0.0314 µM,LUDLU-1,47.8%
same,inhibition at 0.1 µM,LUDLU-1,66.9%
same,inhibition at 0.3139 µM,LUDLU-1,74.1%
same,inhibition at 1 µM,LUDLU-1,78.6%
same,inhibition at 3.1546 µM,LUDLU-1,83.3%
same,inhibition at 10 µM,LUDLU-1,86.3%
